Among the test systems are TK-10; HL-60; M14; SK-MEL-28; HOP-62; U-251; NCI/ADR-RES; A498; NCI-H522; LOX IMVI; SN12C; OVCAR-8; HCC 2998; SF-295; OVCAR-3; SNB-19; OVCAR-5; HOP-92; 786-0; UO-31.
Test in all cases: NCI anticancer screen, dose series, 48 h

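Step 1: Grow cells in 96-well plates. Step 2: Expose to compound for 48 hours at 5 concentrations. Step 3: Interpolate endpoints linearly; if unreached, use highest concentration. GI50: concentration for 50% inhibition of growth.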 Active and inactive are the calls of the source. Rule as the data show it: active = GI50 up to about 1.1 µM and inactive = higher.

For the molecule `CC(=O)c1c(SCCN2CCCC2)n(-c2ccccc2)c(=S)n(-c2ccccc2)c1=O`, the GI50 was 3.64 µM (inactive) in the assay with TK-10; 3.55 µM (inactive) in the assay on HL-60; 2.39 µM (inactive) in the assay on M14; 6.11 µM (inactive) in the assay with SK-MEL-28; 22.4 µM (inactive) with HOP-62; 21.1 µM (inactive) in the assay with U-251. The GI50 in the assay on NCI/ADR-RES is 26.9 µM (inactive); in the assay on A498, 14.3 µM (inactive); with NCI-H522 it was 2.48 µM (inactive); with LOX IMVI, 2.49 µM (inactive); in the assay with SN12C, 7.16 µM (inactive); with OVCAR-8, 9.48 µM (inactive). Also, the GI50 in the assay on HCC 2998 was 3.1 µM (inactive); in the assay with SF-295, > 76 µM (inactive); with OVCAR-3, 2.5 µM (inactive); with SNB-19, 28.4 µM (inactive); in the assay on OVCAR-5 it was 33.7 µM (inactive); in the assay with HOP-92, 3.27 µM (inactive). Moreover, the GI50 in the assay with 786-0 is 1.6 µM (inactive); in the assay with UO-31 it was 1.4 µM (inactive).

In the case of `Cc1cc(=O)c2cc(/N=C/c3ccc([N+](=O)[O-])o3)ccc2o1`, the GI50 in the assay on TK-10 was > 100 µM (inactive); in the assay with HL-60, 57.9 µM (inactive); with M14, > 100 µM (inactive); with SK-MEL-28, > 100 µM (inactive); with HOP-62 it was > 100 µM (inactive); in the assay with U-251, > 100 µM (inactive). The GI50 is > 100 µM (inactive) with NCI/ADR-RES; > 100 µM (inactive) in the assay on A498; 64.6 µM (inactive) in the assay on NCI-H522; 42.7 µM (inactive) in the assay with LOX IMVI; > 100 µM (inactive) with SN12C; > 100 µM (inactive) in the assay with HCC 2998. Also, the GI50 in the assay with SF-295 is > 100 µM (inactive); in the assay with OVCAR-3, > 100 µM (inactive); with SNB-19, > 100 µM (inactive); in the assay with OVCAR-5 it was > 100 µM (inactive); in the assay with HOP-92, > 100 µM (inactive); in the assay with 786-0, 64.4 µM (inactive). Moreover, the GI50 in the assay on UO-31 is > 100 µM (inactive).

As to `O=C(CSCC(=O)N/N=C/c1cccc(O)c1)N/N=C/c1cccc(O)c1`, the GI50 with TK-10, with HL-60, in the assay with M14, in the assay on SK-MEL-28, in the assay on HOP-62 and with U-251 was > 100 µM (inactive) in each case. Also, the GI50 with NCI/ADR-RES, in the assay with A498, in the assay with NCI-H522, with SN12C, with OVCAR-8 and with HCC 2998 was > 100 µM (inactive) each time. For the same molecule, the GI50 in the assay with SF-295, with OVCAR-3, in the assay with SNB-19, with OVCAR-5, in the assay on HOP-92 and in the assay with 786-0 was > 100 µM (inactive) in each case. Also, in the assay on UO-31, the GI50 was > 100 µM (inactive).

For `O=C(O)c1ccccc1/C=N\N=C1NCCN1`, the GI50 in the assay with TK-10, in the assay on HL-60, in the assay on M14, with HOP-62, with U-251 and in the assay with NCI/ADR-RES was > 100 µM (inactive) throughout. Also, the GI50 in the assay with A498, in the assay on NCI-H522, with LOX IMVI, in the assay on SN12C, in the assay on OVCAR-8 and with HCC 2998 was > 100 µM (inactive) each time. The GI50 with SF-295, with OVCAR-3, in the assay with SNB-19, with OVCAR-5, in the assay with HOP-92 and in the assay on 786-0 was > 100 µM (inactive) in each case. Also, in the assay on UO-31, the GI50 was 40.9 µM (inactive).

For `O=C(ON=C1c2ccccc2C(Br)C(Br)c2ccccc21)c1cc([N+](=O)[O-])cc([N+](=O)[O-])c1` (stereo unspecified), the GI50 is 23.2 µM (inactive) in the assay with TK-10; 0.158 µM (active) in the assay with HL-60; 17.6 µM (inactive) in the assay on M14; 18.9 µM (inactive) with SK-MEL-28; 18 µM (inactive) in the assay with HOP-62; 15.8 µM (inactive) in the assay on U-251. For the same molecule, the GI50 with NCI/ADR-RES is 19.6 µM (inactive); in the assay with A498, 17.6 µM (inactive); in the assay on NCI-H522, 5.3 µM (inactive); in the assay with LOX IMVI, 13.9 µM (inactive); with SN12C it was 18.5 µM (inactive); in the assay on OVCAR-8, 17.3 µM (inactive). Besides, the GI50 is 29.4 µM (inactive) in the assay with HCC 2998; 35 µM (inactive) in the assay on SF-295; 19.9 µM (inactive) with OVCAR-3; 24.1 µM (inactive) in the assay on SNB-19; 22.4 µM (inactive) with OVCAR-5; 16 µM (inactive) in the assay on HOP-92. Moreover, the GI50 in the assay with 786-0 was 14.9 µM (inactive).

With `CN(N)C(=O)NCCCl`, the GI50 in the assay on TK-10, in the assay on HL-60, in the assay on M14, with SK-MEL-28, in the assay with HOP-62 and with U-251 was > 100 µM (inactive) each time. Moreover, the GI50 was 0.021 µM (active) in the assay on NCI/ADR-RES; > 100 µM (inactive) with A498; > 100 µM (inactive) in the assay on NCI-H522; > 100 µM (inactive) in the assay on LOX IMVI; > 100 µM (inactive) in the assay on SN12C; > 100 µM (inactive) in the assay with HCC 2998. Besides, the GI50 in the assay with SF-295, in the assay with OVCAR-3, with SNB-19, in the assay with OVCAR-5, in the assay with HOP-92 and in the assay on 786-0 was > 100 µM (inactive) throughout. Moreover, the GI50 with UO-31 is > 100 µM (inactive).

With `O=c1oc2cccnc2n1CCCCN1CCN(c2ccccc2)CC1`, the GI50 with TK-10, with HL-60, in the assay with M14, with SK-MEL-28, with HOP-62 and in the assay with U-251 was > 100 µM (inactive) throughout. The GI50 in the assay on NCI/ADR-RES, with A498, in the assay on NCI-H522, in the assay on LOX IMVI, with OVCAR-8 and with HCC 2998 was > 100 µM (inactive) throughout. The GI50 with SF-295, in the assay with OVCAR-3, in the assay with SNB-19, with OVCAR-5, in the assay on HOP-92 and in the assay with 786-0 was > 100 µM (inactive) throughout. Further, the GI50 with UO-31 was > 100 µM (inactive).

For the molecule `C/C=C/C(CC(O)(C(F)(F)F)C(F)(F)F)=N/NC(N)=S`, the GI50 in the assay on TK-10, with HL-60, in the assay with M14, in the assay with SK-MEL-28, with HOP-62 and in the assay with U-251 was > 10 µM (inactive) throughout. In addition, the GI50 with NCI/ADR-RES, with A498, in the assay with NCI-H522, with LOX IMVI, with SN12C and with OVCAR-8 was > 10 µM (inactive) each time. The GI50 with HCC 2998, with SF-295, with OVCAR-3, with SNB-19, in the assay on OVCAR-5 and with HOP-92 was > 10 µM (inactive) throughout. Moreover, in the assay with 786-0, the GI50 is > 10 µM (inactive).

Take `CC[C@]12C=CCN3CCC4(c5cc([C@@]6(C(=O)OC)CC7CN(CCc8c6[nH]c6ccccc86)C[C@@H]6CCC[C@H]76)c(OC)cc5N(C)C4[C@](O)(C(=O)OC)C1OC(C)=O)C32` (stereo partly specified): the GI50 was 0.0585 µM (active) with HL-60; 0.157 µM (active) with M14; 0.168 µM (active) with SK-MEL-28; 0.106 µM (active) in the assay on HOP-62; 0.106 µM (active) with U-251; 1.15 µM (inactive) in the assay on NCI/ADR-RES. In addition, the GI50 with A498 is 0.251 µM (active); with NCI-H522, 0.0188 µM (active); in the assay on LOX IMVI, 0.141 µM (active); with SN12C, 0.423 µM (active); with OVCAR-8 it was 0.185 µM (active); in the assay with HCC 2998, 0.29 µM (active). In addition, the GI50 was 0.0986 µM (active) with SF-295; 0.061 µM (active) with OVCAR-3; 0.121 µM (active) with SNB-19; 0.741 µM (active) in the assay on OVCAR-5; 0.526 µM (active) in the assay on HOP-92; 0.316 µM (active) in the assay on 786-0. Moreover, the GI50 in the assay on UO-31 is 3.55 µM (inactive).

For `Cc1cc(C)c2c(c1)CC1(Cc3cc(C)c(C)cc3C1=O)C2=O` (stereo unspecified), the GI50 in the assay on TK-10 was > 100 µM (inactive); in the assay on HL-60, 7.1 µM (inactive); in the assay on M14, 27.7 µM (inactive); in the assay with SK-MEL-28 it was > 100 µM (inactive); in the assay with U-251 it was > 100 µM (inactive); with NCI/ADR-RES, > 100 µM (inactive). Besides, the GI50 in the assay with A498, with NCI-H522, with LOX IMVI, in the assay on SN12C, in the assay on OVCAR-8 and in the assay with HCC 2998 was > 100 µM (inactive) throughout. The GI50 with SF-295 was > 100 µM (inactive); in the assay on OVCAR-3 it was > 100 µM (inactive); with SNB-19 it was > 100 µM (inactive); in the assay on OVCAR-5, 48.1 µM (inactive); with HOP-92, 60.5 µM (inactive); in the assay with 786-0 it was 71.9 µM (inactive). The GI50 with UO-31 was > 100 µM (inactive).
